Data reported in PubChem BioAssay (NCI).
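Five compound concentrations were applied to cells in 96-well plates for 48 hours; endpoints were derived by simple linear interpolation of the resulting dose-response curve. TGI: concentration producing complete growth inhibition.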

Experiments:
Assay in all cases: NCI tumour cell line growth inhibition, 48 h
[1] = test system: HOP-92 NSCLC
[2] = test system: UO-31 renal
[3] = test system: MALME-3M melanoma
[4] = test system: UACC-62 melanoma
[5] = test system: MDA-N
[6] = test system: BT-549 breast
[7] = test system: SK-OV-3 ovarian
[8] = test system: CAKI-1 renal
[9] = test system: SNB-75 CNS
[10] = test system: NCI/ADR-RES ovarian

SMILES | TGI [1] | TGI [2] | TGI [3] | TGI [4] | TGI [5] | TGI [6] | TGI [7] | TGI [8] | TGI [9] | TGI [10]
NCCOCC(N)C(=O)O (stereo not given) | > 100 µM | > 100 µM | > 100 µM | > 100 µM | > 100 µM | > 100 µM | > 100 µM | > 100 µM | > 100 µM | > 100 µM
O=C(c1ccco1)N(C(=S)OC12CC3CC(CC(C3)C1)C2)c1ccccc1 | > 100 µM | 98.7 µM | 65.7 µM | 73.4 µM | 83.9 µM | > 100 µM | > 100 µM | > 100 µM | > 100 µM | > 100 µM
Cc1cc2c(c(=O)n1C)SCC2 | > 100 µM | > 100 µM | > 100 µM | > 100 µM | > 100 µM | > 100 µM | > 100 µM | > 100 µM | > 100 µM | > 100 µM
c1ccc(-c2nnn(CCN3CCCCC3)n2)cc1 | > 100 µM | > 100 µM | > 100 µM | > 100 µM | > 100 µM | > 100 µM | > 100 µM | > 100 µM | > 100 µM | > 100 µM
CS(=O)(=O)NC12CCC(c3ccccc31)c1ccccc12 | > 100 µM | > 100 µM | > 100 µM | > 100 µM | > 100 µM | > 100 µM | > 100 µM | > 100 µM | > 100 µM | > 100 µM
COc1ccc(-c2cc(C(O)C3CCCCN3)c3ccccc3n2)cc1 (stereo not given) | 13.1 µM | 8.54 µM | 28.9 µM | 12 µM | 16.7 µM | 32.2 µM | 27.3 µM | 18.4 µM | 17.1 µM | 39 µM
N/C(=N\Nc1ccc(S(N)(=O)=O)cc1)c1cnccn1 | > 100 µM | > 100 µM | > 100 µM | > 100 µM | > 100 µM | > 100 µM | > 100 µM | > 100 µM | > 100 µM | > 100 µM
CC(C)C1(O)C(=O)N(c2c(F)c(F)c(F)c(F)c2F)C(=S)N1CCSc1ccccc1 (stereo not given) | 22.2 µM | 28.9 µM | 31.6 µM | 30.6 µM | 31.3 µM | 30.4 µM | 31 µM | 24.7 µM | 31.1 µM | 31 µM
